This passage reports Activity and IC50 results from ChEMBL document CHEMBL1153962, “Thiodisaccharides with galactofuranose or arabinofuranose as terminal units: synthesis and inhibitory activity of an exo beta-D-galactofuranosidase” (Bioorg Med Chem, 2009).

Structures are written as SMILES. pIC50: −log10 of the molar value. The source made the active and inactive calls. No cut-off for these calls is given here.

In general, pIC50 refers to −log10 of the IC50, conventionally taken in molar units.

The first assay deals with Penicillium fellutanum. Put plainly: Inhibition of Penicillium fellutanum exo beta-D-galactofuranosidase assessed as 4-nitrophenol release at 0.2 to 1 mM by spectrophotometry.
Consider `CO[C@H]1O[C@H](CS[C@@H]2O[C@@H]([C@H](O)CO)[C@H](O)[C@H]2O)[C@H](O)[C@H](O)[C@H]1O`, for which the outcome was Active. With `CO[C@H]1O[C@H](CS[C@@H]2O[C@@H](CO)[C@H](O)[C@H]2O)[C@@H](O)[C@H](O)[C@H]1O`, the outcome was inactive.

In the case of `CC1(C)O[C@H]2[C@@H](O1)[C@@H](CS[C@@H]1O[C@@H]([C@H](O)CO)[C@H](O)[C@H]1O)O[C@@H]1OC(C)(C)O[C@@H]12`, the result was Active.

Molecular target in another assay: not listed separately
Put plainly: Inhibition of Penicillium fellutanum exo beta-D-galactofuranosidase assessed as 4-nitrophenol release by spectrophotometry.
For the compound `O=C1O[C@@H]([C@H](O)CO)[C@H](O)[C@H]1O`, the pIC50 was 4.70. Take `CO[C@H]1O[C@H](CS[C@@H]2O[C@@H]([C@H](O)CO)[C@H](O)[C@H]2O)[C@H](O)[C@H](O)[C@H]1O`: the pIC50 is less than 3.00.

As for `CC1(C)O[C@H]2[C@@H](O1)[C@@H](CS[C@@H]1O[C@@H]([C@H](O)CO)[C@H](O)[C@H]1O)O[C@@H]1OC(C)(C)O[C@@H]12`, the pIC50 is less than 3.00.
